Assay results published in ChEMBL document CHEMBL1128854, “Stereoselective synthesis and evaluation of all stereoisomers of Z4349, a novel and selective -opioid analgesic” (Bioorg Med Chem Lett, 1995).

How the values were obtained:
Mus musculus = assay: In vivo analgesic activity in hot plate test after subcutaneous administration in mice; type: functional; details: sc
Mu-type opioid receptor = Mu-type opioid receptor (Rattus norvegicus, UniProt P33535); assay: Inhibition of [3H]dihydromorphine (1 nM) binding to mu opioid receptor of rat brain homogenate
Chain of Mu-type opioid receptor (P33535 whole entry): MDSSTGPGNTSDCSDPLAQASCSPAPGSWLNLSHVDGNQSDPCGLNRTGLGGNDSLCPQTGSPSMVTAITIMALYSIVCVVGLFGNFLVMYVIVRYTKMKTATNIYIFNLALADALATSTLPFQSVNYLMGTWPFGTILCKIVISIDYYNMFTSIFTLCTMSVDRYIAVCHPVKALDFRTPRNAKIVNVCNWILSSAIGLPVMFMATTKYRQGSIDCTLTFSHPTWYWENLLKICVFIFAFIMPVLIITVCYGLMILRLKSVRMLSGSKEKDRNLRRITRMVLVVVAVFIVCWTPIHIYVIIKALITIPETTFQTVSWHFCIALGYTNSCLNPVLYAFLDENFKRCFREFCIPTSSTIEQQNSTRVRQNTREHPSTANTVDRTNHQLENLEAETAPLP

[1] = target: T1, Delta-type opioid receptor (Rattus norvegicus, UniProt P33533); assay: Inhibition of [3H]-[D-Pen2, D-Pen5]-enkephalin (2 nM) to Opioid receptor delta 1 of male Sprague-Dawley rat brain homogenate
T1 sequence (P33533 whole entry): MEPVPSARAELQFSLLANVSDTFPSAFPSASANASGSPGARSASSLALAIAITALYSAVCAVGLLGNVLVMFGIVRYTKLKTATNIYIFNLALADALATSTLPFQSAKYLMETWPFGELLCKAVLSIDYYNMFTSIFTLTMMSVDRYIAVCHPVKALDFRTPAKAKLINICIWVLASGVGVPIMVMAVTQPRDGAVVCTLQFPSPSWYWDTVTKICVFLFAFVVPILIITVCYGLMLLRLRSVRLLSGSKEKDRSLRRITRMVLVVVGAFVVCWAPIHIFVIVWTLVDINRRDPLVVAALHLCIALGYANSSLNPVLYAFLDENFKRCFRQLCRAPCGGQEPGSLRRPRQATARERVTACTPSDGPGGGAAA

[2] = target: T2, Kappa-type opioid receptor (Rattus norvegicus, UniProt P34975); assay: Inhibition of 9 (2 nM) binding to Opioid receptor kappa 1 of rat brain homogenate; type: tissue-based
T2 sequence (P34975 whole entry): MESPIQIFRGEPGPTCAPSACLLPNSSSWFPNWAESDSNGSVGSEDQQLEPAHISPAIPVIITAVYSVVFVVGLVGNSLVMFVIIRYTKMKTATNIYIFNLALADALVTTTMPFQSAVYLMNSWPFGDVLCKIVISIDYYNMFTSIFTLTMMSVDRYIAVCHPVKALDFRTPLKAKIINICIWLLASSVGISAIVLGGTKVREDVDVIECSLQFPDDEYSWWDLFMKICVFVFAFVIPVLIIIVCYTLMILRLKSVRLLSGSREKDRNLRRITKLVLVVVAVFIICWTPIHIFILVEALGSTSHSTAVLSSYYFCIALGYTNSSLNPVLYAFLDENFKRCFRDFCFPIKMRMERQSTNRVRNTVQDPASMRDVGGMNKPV

[3] = target: T1, Delta-type opioid receptor; assay: Inhibition of [3H]-[D-Pen2, D-Pen5]-enkephalin (2 nM) to Opioid receptor delta 1 of male Sprague-Dawley rat brain homogenate; Not detectable
[4] = target: T2, Kappa-type opioid receptor; assay: […] to Opioid receptor kappa 1 of rat brain homogenate; Not detectable; type: tissue-based

Compound | ED50 (Mus musculus) [mg/kg] | Ki (Mu-type opioid receptor) [nM] | Ki [1] [nM] | Ki [2] [nM] | Ki [3] | Ki [4]
CC[C@@H](C)N(C[C@H](O)[C@@H]1CCC(=O)N1Cc1ccccc1Cl)[C@H](C)CC | 0.01 | 0.25 | 265 | 62.5 | – | –
CC[C@H](C)N(C[C@@H](O)[C@H]1CCC(=O)N1Cc1ccccc1Cl)[C@@H](C)CC | > 100 | > 5000 | – | – | Not Active | Not Active
CC[C@@H](C)N(C[C@H](O)[C@@H]1CCC(=O)N1Cc1ccccc1Cl)[C@@H](C)CC | 1.5 | 32 | > 5000 | – | – | Not Active
CC[C@@H](C)N(C[C@@H](O)[C@H]1CCC(=O)N1Cc1ccccc1Cl)[C@H](C)CC | 0.47 | 35 | > 5000 | 4850 | – | –
CC[C@@H](C)N(C[C@@H](O)[C@H]1CCC(=O)N1Cc1ccccc1Cl)[C@@H](C)CC | 14.3 | 87 | 1780 | 260 | – | –
CN1CC[C@]23c4c5ccc(O)c4O[C@H]2[C@@H](O)C=C[C@H]3[C@H]1C5 [MORPHINE] | 4.6 | – | – | – | – | –
CC[C@H](C)N(C[C@H](O)[C@H]1CCC(=O)N1Cc1ccccc1Cl)[C@@H](C)CC | > 100 | > 5000 | > 5000 | 270 | – | –
CC[C@@H](C)N(C[C@@H](O)[C@@H]1CCC(=O)N1Cc1ccccc1Cl)[C@H](C)CC | > 100 | 390 | 550 | > 5000 | – | –
CC[C@@H](C)N(C[C@H](O)[C@H]1CCC(=O)N1Cc1ccccc1Cl)[C@@H](C)CC | > 100 | > 5000 | – | 198 | Not Active | –
CC[C@H](C)N(C[C@@H](O)[C@@H]1CCC(=O)N1Cc1ccccc1Cl)[C@@H](C)CC | > 100 | 145 | > 5000 | > 5000 | – | –
CC[C@@H](C)N(C[C@@H](O)[C@@H]1CCC(=O)N1Cc1ccccc1Cl)[C@@H](C)CC | > 100 | 340 | > 5000 | 3650 | – | –
CC[C@@H](C)N(C[C@H](O)[C@H]1CCC(=O)N1Cc1ccccc1Cl)[C@H](C)CC | 10.4 | 100 | 1850 | > 5000 | – | –
CC[C@H](C)N(C[C@H](O)[C@@H]1CCC(=O)N1Cc1ccccc1Cl)[C@@H](C)CC | > 100 | 2250 | > 5000 | > 5000 | – | –
